Experimental data published in patent publication US20240366540A1, “MITOFUSIN INHIBITORS AND USES THEREOF” (Albert Einstein College of Medicine, priority 2021, published 2024).

Tested on: MFN1 and MFN2
Assay: MFN1 and MFN2 gene expression and protein levels
Format: cell-based
Method: Western blot. Western blots were performed from whole cell lysates (WCL) prepared in lysis buffer containing 50 mM Tris-HCl pH 7.5, 1% Triton X-100, 150 mM NaCl, 5 mM MgCl2, 1 mM EGTA and 10% glycerol in the presence of protease inhibitor cocktail (Roche).
Analysis of mitochondrial biogenesis-related genes by q-PCR. Total RNA was extracted by using RNeasy Mini Kit (Qiagen) followed by cDNA synthesis using the SuperScript IV VILO Master Mix (Thermo Scientific), both performed according to the manufacturer's protocol. q-PCR was performed using the following primers: […]
For the q-PCR reaction, Power SYBR Green master mix (Thermo Scientific) was used according to the manufacturer's instructions. Briefly, each reaction consisted of 10 ng cDNA, 5 μL Power SYBR Green master mix, 200 nM primers (forward and reverse), and RNase-free water up to 10 μL. q-PCR was performed on the ViiA 7 Real-Time PCR System (Thermo Scientific) with the following cycle parameter: 95° C. for 10 min, 40 cycles of 95° C. for 15 s, and 60° C. for 1 min. q-PCR products were analyzed by melting curves for unspecific products or primer dimer formation. Rpl39 was used as housekeeping gene and 2^−ΔΔCT method was applied to determine the relative mRNAs expression.

In the case of `Cc1cccc(NC(C)c2cc(Cl)ccc2O)c1C` (stereo not shown) [MFI8, 4-Chloro-2-(1-((2,3-dimethylphenyl)amino)ethyl)phenol], the “MFN1 and MFN2 gene expression and corresponding protein levels” value is reported as “neither MASM7 nor MFI8 altered”.
